According to patent publication US20260078135A1, “POLYCYCLIC QUINAZOLINES FOR INHIBITION OF ERBB2” (Enliven Inc., priority 2022, published 2026):

How the values were obtained:
[1] = biological target: Ba/F3 ERBB2 YVMA (Homo sapiens, UniProt P04626, DUP772-775, cells depend on it); test: Cell viability assay (CellTiter Glo), Ba/F3 cells engineered to express ERBB2 YVMA; format: cell-based, mouse; conditions: Ba/F3 cells expressing human ERBB2 YVMA mutant, 72 hours, read-out: Ba/F3 ERBB2 YVMA, IC50
Ba/F3 ERBB2 YVMA, sequence (P04626 with tags, fused parts or gaps DUP772-775): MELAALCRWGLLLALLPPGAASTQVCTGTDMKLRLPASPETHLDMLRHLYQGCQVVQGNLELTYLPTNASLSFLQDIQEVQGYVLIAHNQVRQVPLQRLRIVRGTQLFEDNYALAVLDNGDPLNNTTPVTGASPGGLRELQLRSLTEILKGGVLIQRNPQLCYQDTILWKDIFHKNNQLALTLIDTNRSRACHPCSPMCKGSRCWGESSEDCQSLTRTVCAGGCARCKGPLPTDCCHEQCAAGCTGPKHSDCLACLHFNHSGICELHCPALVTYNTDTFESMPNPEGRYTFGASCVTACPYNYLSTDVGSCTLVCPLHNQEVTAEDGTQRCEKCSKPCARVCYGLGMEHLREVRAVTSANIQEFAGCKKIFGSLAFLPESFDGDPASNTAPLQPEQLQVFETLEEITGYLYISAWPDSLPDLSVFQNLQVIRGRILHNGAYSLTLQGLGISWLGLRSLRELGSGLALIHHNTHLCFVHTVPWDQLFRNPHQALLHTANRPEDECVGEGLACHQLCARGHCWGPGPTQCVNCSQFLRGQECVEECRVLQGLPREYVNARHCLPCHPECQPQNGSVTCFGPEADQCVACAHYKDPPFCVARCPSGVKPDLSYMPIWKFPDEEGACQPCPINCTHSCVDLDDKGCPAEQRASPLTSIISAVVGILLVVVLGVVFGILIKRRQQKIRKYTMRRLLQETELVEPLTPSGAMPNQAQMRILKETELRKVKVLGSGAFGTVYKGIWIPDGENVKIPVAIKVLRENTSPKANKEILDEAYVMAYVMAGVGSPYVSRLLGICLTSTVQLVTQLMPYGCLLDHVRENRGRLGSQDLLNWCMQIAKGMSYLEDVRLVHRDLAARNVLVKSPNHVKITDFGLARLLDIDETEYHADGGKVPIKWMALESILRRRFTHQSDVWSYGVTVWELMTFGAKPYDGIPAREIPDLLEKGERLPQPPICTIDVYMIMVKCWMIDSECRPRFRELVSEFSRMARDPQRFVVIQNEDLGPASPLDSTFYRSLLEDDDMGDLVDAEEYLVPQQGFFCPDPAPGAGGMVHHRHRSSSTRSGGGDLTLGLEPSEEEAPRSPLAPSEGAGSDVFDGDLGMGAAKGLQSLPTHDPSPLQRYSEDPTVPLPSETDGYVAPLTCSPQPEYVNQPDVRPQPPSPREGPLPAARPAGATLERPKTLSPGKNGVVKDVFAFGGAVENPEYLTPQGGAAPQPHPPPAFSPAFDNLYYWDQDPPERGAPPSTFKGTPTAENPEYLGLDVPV
Description: Cells were treated with compounds, and cell viability was measured as a metric of kinase inhibition.
BT-474, A431, MDA-MB-175VII, NCI-H1781, MCF7, and Ba/F3 cell lines were tested. The Ba/F3 cell line is IL-3-dependent mouse cell line derived from the C3H mouse strain. Ba/F3 cell lines were engineered to express human ERBB2 or EGFR kinases, rendering the cells IL-3 independent. The lines were generated via retroviral transduction utilizing a Moloney murine leukemia virus (MMLV) promoter, and constructs are stably integrated into the cell genome. The sequences of the ERBB2 and EGFR genes used were NCBI Reference Sequences NM_004448.3 and NM_005228.3, respectively.
BT-474, A431, MDA-MB-175VII, NCI-H1781 and MCF7 cells were grown in the appropriate growth medium as described in Table B2 below, and harvested at 50-80% confluence. BT-474, A431, MDA-MB-175VII, NCI-H1781 and MCF7 cells were counted and seeded at 2,000 or 1,500 cells per well in 384-well tissue culture plates (see Table B2). Similarly, Ba/F3 cell lines engineered to express EGFR, ERBB2, or ERBB2 mutants were grown, harvested, counted and seeded at 3000 cells per well in 96-well plates. A subset of wells contained media only (low control, “LC”).
Table B1 provides the growth media and number of cells seeded per well for the each cell line.
Compounds were dissolved in DMSO and serially diluted. Serially-diluted compound or a DMSO only control (high control, “HC”) was added to the plated cells in each well. Compounds were tested at concentrations of about 10 μM to 0.51 nM, using three-fold dilutions. The final proportion of DMSO never exceeded 0.1%.
Plates were placed in a 37° C., 5% CO2 incubator for 72 hours. Plates were then removed from the incubator and equilibrated for 15 minutes at room temperature. 40 μl of CellTiter Glo reagent (Promega) was added to measure the relative level of metabolically active cells by quantifying intracellular ATP concentrations. Plates were incubated for 30 minutes at room temperature, and luminescence was measured. Percent viability was normalized to a vehicle control only using the following formula: % viability=100×(Lumsample−LumLC)/(LumHC−LumLC). Graphical curves were fitted using a nonlinear regression model with a sigmoidal dose response.

[2] = biological target: T1, phosphorylated EGFR (pEGFR) (Homo sapiens, UniProt P00533); test: Detection of phosphorylated EGFR (pEGFR) by AlphaLISA in EGF-stimulated A431 cells; format: cell-based; conditions: A431 cells (10% FBS), 4 hours incubation, EGF 30 ng/mL for 10 minutes
T1 construct: performed to measure phosphorylated EGFR levels using A431 cells (10% FBS); endogenous in cells; host or cells: A431
T1 sequence (P00533 25-1210): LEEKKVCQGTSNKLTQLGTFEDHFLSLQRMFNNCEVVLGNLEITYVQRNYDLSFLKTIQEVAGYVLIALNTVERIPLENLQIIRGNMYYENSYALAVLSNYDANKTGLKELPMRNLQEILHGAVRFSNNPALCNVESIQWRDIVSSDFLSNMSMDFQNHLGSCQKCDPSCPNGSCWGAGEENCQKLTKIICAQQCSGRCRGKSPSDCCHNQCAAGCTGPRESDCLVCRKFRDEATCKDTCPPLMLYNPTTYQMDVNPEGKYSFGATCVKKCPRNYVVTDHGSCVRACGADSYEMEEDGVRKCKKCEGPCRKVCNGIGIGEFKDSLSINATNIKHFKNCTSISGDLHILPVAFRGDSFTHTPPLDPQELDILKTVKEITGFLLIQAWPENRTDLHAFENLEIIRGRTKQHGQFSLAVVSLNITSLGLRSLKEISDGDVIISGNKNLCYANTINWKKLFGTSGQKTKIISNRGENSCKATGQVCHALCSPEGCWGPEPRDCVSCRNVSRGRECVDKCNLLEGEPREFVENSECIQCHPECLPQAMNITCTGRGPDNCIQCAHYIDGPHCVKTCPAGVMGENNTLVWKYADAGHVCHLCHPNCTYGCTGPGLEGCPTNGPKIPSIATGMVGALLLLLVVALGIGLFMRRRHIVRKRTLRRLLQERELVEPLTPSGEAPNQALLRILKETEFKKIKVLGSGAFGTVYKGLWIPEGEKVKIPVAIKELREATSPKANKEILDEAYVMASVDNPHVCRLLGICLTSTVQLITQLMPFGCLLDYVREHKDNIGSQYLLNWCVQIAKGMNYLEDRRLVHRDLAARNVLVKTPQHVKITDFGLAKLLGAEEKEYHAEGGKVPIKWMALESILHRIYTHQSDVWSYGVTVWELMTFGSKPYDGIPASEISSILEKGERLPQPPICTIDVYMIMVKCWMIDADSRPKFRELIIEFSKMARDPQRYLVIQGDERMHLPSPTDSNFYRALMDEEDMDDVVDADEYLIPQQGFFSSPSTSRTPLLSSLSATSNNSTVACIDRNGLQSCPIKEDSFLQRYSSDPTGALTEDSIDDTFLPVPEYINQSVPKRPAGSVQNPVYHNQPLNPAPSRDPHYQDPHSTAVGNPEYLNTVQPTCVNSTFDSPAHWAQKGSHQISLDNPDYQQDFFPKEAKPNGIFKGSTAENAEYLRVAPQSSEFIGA
Summary of the method: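 A431 cells in 10% FBS were preincubated with compound for 4 h at 37 °C, then stimulated with 30 ng/mL EGF for 10 min and lysed. pEGFR read by AlphaLISA. % inhibition normalised to DMSO and staurosporine controls; IC50 from four-parameter curve fit.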

[3] = biological target: T2, phosphorylated ERBB2 (pERBB2) (Homo sapiens, UniProt P04626); test: Detection of phosphorylated ERBB2 (pERBB2) by ELISA in BT-474 cells; format: cell-based; conditions: four hour incubation
T2 construct: endogenous in cells; host or cells: BT-474
T2 sequence (P04626 23-1255): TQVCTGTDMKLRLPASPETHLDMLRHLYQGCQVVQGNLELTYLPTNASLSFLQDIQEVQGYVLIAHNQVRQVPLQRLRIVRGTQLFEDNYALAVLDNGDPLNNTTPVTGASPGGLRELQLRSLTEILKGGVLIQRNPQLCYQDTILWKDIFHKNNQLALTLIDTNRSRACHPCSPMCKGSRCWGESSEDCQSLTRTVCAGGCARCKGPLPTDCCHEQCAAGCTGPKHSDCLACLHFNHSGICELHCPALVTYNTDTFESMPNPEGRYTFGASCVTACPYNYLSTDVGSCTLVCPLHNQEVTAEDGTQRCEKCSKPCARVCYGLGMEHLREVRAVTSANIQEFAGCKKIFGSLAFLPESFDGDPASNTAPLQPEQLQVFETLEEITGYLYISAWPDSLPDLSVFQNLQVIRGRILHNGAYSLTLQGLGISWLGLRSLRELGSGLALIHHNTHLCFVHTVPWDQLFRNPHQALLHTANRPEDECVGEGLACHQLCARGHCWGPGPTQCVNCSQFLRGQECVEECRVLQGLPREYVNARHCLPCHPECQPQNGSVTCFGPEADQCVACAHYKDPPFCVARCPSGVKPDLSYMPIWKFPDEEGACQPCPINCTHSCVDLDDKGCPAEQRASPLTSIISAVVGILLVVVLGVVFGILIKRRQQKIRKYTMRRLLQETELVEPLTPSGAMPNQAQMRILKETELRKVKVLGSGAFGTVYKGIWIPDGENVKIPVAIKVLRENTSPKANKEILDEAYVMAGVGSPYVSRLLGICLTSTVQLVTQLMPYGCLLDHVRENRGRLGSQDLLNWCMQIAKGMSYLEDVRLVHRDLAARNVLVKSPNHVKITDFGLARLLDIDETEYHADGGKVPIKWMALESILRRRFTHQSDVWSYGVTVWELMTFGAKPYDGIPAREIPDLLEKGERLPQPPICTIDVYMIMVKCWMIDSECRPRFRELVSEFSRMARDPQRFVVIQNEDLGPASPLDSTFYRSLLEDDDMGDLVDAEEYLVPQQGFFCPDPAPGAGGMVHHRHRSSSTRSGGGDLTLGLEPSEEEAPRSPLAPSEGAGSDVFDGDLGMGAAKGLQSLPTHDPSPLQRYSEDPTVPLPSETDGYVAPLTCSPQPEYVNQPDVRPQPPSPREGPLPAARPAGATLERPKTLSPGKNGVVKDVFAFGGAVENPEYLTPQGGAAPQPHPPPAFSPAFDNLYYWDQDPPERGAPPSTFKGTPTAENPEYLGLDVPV
Summary of the method: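 BT-474 cells were treated with compounds (fourfold dilutions, 10 μM to 0.01 nM final) for 4 h at 37 °C, then lysed. pERBB2 in lysates was quantified by ELISA with an HRP anti-phosphotyrosine detection antibody and TMB read at 450 nm; % relative activity was normalized to no-cell and 0.1% DMSO controls.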

SMILES	IC50 [2] [nM]	IC50 [3] [nM]	GI50 [1] [nM]
C=CC(=O)N1CCN2c3nc4c(Nc5ccc(Oc6ccn7ncnc7c6)c(C)c5)ncnc4cc3OC[C@H]2C1 [Compound 2, (R)-1-(11-((4-([1,2,4]triazolo[1,5-a]pyridin-7-yloxy)-3-methylphenyl)amino)-1,2,4a,5-tetrahydropyrazino[1,2-d]pyrimido[4′,5′:5,6]pyrido[3,2-b][1,4]oxazin-3(4H)-yl)prop-2-en-1-one]	421	8.97	4.54
C=CC(=O)N1CCN2c3ccc4ncnc(Nc5ccc(Oc6ccn7ncnc7c6)c(C)c5)c4c3OC[C@@H]2C1 [Compound 5, (S)-1-(4-((4-([1,2,4]triazolo[1,5-a]pyridin-7-yloxy)-3-methylphenyl)amino)-6a,7,9,10-tetrahydropyrazino[1′,2′:4,5][1,4]oxazino[2,3-f]quinazolin-8(6H)-yl)prop-2-en-1-one]	517	7.89	4.62
C=CC(=O)N1CCN2c3ccc4ncnc(Nc5ccc(Oc6ccn7ncnc7c6)c(C)c5)c4c3OC[C@H]2C1 [Compound 6, (R)-1-(4-((4-([1,2,4]triazolo[1,5-a]pyridin-7-yloxy)-3-methylphenyl)amino)-6a,7,9,10-tetrahydropyrazino[1′,2′:4,5][1,4]oxazino[2,3-f]quinazolin-8(6H)-yl)prop-2-en-1-one]	540	7.19	6.23
C=CC(=O)N1CCN2c3cc4c(Nc5ccc(Oc6ccc7c(c6)ncn7C)c(C)c5)ncnc4cc3OC[C@H]2C1 [Compound 7, (R)-1-(11-((3-methyl-4-((1-methyl-1H-benzo[d]imidazol-5-yl)oxy)phenyl)amino)-1,2,4a,5-tetrahydropyrazino[1′,2′:4,5][1,4]oxazino[3,2-g]quinazolin-3(4H)-yl)prop-2-en-1-one]	1780	30.7	112
C=CC(=O)N1CCN2c3nc4c(Nc5ccc(Oc6ccc7c(c6)ncn7C)c(C)c5)ncnc4cc3OC[C@H]2C1 [Compound 8, (R)-1-(11-((3-methyl-4-((1-methyl-1H-benzo[d]imidazol-5-yl)oxy)phenyl)amino)-1,2,4a,5-tetrahydropyrazino[1,2-d]pyrimido[4′,5′:5,6]pyrido[3,2-b][1,4]oxazin-3(4H)-yl)prop-2-en-1-one]	643	18.1	13.3
CC#CC(=O)N1CCN2c3cc4c(Nc5ccc(Oc6ccc7c(c6)ncn7C)c(C)c5)ncnc4cc3OC[C@@H]2C1 [Compound 14, (S)-1-(11-((3-methyl-4-((1-methyl-1H-benzo[d]imidazol-5-yl)oxy)phenyl)amino)-1,2,4a,5-tetrahydropyrazino[1′,2′:4,5][1,4]oxazino[3,2-g]quinazolin-3(4H)-yl)but-2-yn-1-one]	545	82.8	14.4
Cc1cc(Nc2ncnc3cc4c(nc23)N2CCN(C(=O)/C=C/CN(C)C)C[C@H]2CO4)ccc1Oc1ccc2c(c1)ncn2C [Compound 17, (S,E)-4-(dimethylamino)-1-(11-((3-methyl-4-((1-methyl-1H-benzo[d]imidazol-5-yl)oxy)phenyl)amino)-1,2,4a,5-tetrahydropyrazino[1,2-d]pyrimido[4′,5′:5,6]pyrido[3,2-b][1,4]oxazin-3(4H)-yl)but-2-en-1-one]	307	34.3	5.11

Second part, led by results:

IC50 [2] [nM]	IC50 [3] [nM]	SMILES	GI50 [1] [nM]
212	12.8	C=CC(=O)N1CCN2c3cc4c(Nc5ccc(Oc6ccn7ncnc7c6)c(C)c5)ncnc4cc3OC[C@@H]2C1 [Compound 3, (S)-1-(11-((4-([1,2,4]triazolo[1,5-a]pyridin-7-yloxy)-3-methylphenyl)amino)-1,2,4a,5-tetrahydropyrazino[1′,2′:4,5][1,4]oxazino[3,2-g]quinazolin-3(4H)-yl)prop-2-en-1-one]	10.4
1330	14.1	C=CC(=O)N1CCN2c3cc4c(Nc5ccc(Oc6ccn7ncnc7c6)c(C)c5)ncnc4cc3OC[C@H]2C1 [Compound 4, (R)-1-(11-((4-([1,2,4]triazolo[1,5-a]pyridin-7-yloxy)-3-methylphenyl)amino)-1,2,4a,5-tetrahydropyrazino[1′,2′:4,5][1,4]oxazino[3,2-g]quinazolin-3(4H)-yl)prop-2-en-1-one]	62.4
1680	36.1	Cc1cc(Nc2ncnc3cc4c(cc23)N2CCN(C(=O)/C=C/CN(C)C)C[C@H]2CO4)ccc1Oc1ccn2ncnc2c1 [Compound 9, (S,E)-1-(11-((4-([1,2,4]triazolo[1,5-a]pyridin-7-yloxy)-3-methylphenyl)amino)-1,2,4a,5-tetrahydropyrazino[1′,2′:4,5][1,4]oxazino[3,2-g]quinazolin-3(4H)-yl)-4-(dimethylamino)but-2-en-1-one]	41.2
3280	32.7	Cc1cc(Nc2ncnc3cc4c(cc23)N2CCN(C(=O)/C=C/CN(C)C)C[C@@H]2CO4)ccc1Oc1ccn2ncnc2c1 [Compound 10, (R,E)-1-(11-((4-([1,2,4]triazolo[1,5-a]pyridin-7-yloxy)-3-methylphenyl)amino)-1,2,4a,5-tetrahydropyrazino[1′,2′:4,5][1,4]oxazino[3,2-g]quinazolin-3(4H)-yl)-4-(dimethylamino)but-2-en-1-one]	84.9
1180	73.3	Cc1cc(Nc2ncnc3cc4c(cc23)N2CCN(C(=O)/C=C/CN(C)C)C[C@H]2CO4)ccc1Oc1ccc2c(c1)ncn2C [Compound 11, (S,E)-4-(dimethylamino)-1-(11-((3-methyl-4-((1-methyl-1H-benzo[d]imidazol-5-yl)oxy)phenyl)amino)-1,2,4a,5-tetrahydropyrazino[1′,2′:4,5][1,4]oxazino[3,2-g]quinazolin-3(4H)-yl)but-2-en-1-one]	65.3
2840	83.7	Cc1cc(Nc2ncnc3cc4c(cc23)N2CCN(C(=O)/C=C/CN(C)C)C[C@@H]2CO4)ccc1Oc1ccc2c(c1)ncn2C [Compound 12, (R,E)-4-(dimethylamino)-1-(11-((3-methyl-4-((1-methyl-1H-benzo[d]imidazol-5-yl)oxy)phenyl)amino)-1,2,4a,5-tetrahydropyrazino[1′,2′:4,5][1,4]oxazino[3,2-g]quinazolin-3(4H)-yl)but-2-en-1-one]	206
254	13	CC#CC(=O)N1CCN2c3cc4c(Nc5ccc(Oc6ccn7ncnc7c6)c(C)c5)ncnc4cc3OC[C@@H]2C1 [Compound 13, (S)-1-(11-((4-([1,2,4]triazolo[1,5-a]pyridin-7-yloxy)-3-methylphenyl)amino)-1,2,4a,5-tetrahydropyrazino[1′,2′:4,5][1,4]oxazino[3,2-g]quinazolin-3(4H)-yl)but-2-yn-1-one]	6.24
284	6.93	Cc1cc(Nc2ncnc3cc4c(nc23)N2CCN(C(=O)/C=C/CN(C)C)C[C@@H]2CO4)ccc1Oc1ccn2ncnc2c1 [Compound 15, (R,E)-1-(11-((4-([1,2,4]triazolo[1,5-a]pyridin-7-yloxy)-3-methylphenyl)amino)-1,2,4a,5-tetrahydropyrazino[1,2-d]pyrimido[4′,5′:5,6]pyrido[3,2-b][1,4]oxazin-3(4H)-yl)-4-(dimethylamino)but-2-en-1-one]	4.89
130	5.8	Cc1cc(Nc2ncnc3cc4c(nc23)N2CCN(C(=O)/C=C/CN(C)C)C[C@H]2CO4)ccc1Oc1ccn2ncnc2c1 [Compound 16, (S,E)-1-(11-((4-([1,2,4]triazolo[1,5-a]pyridin-7-yloxy)-3-methylphenyl)amino)-1,2,4a,5-tetrahydropyrazino[1,2-d]pyrimido[4′,5′:5,6]pyrido[3,2-b][1,4]oxazin-3(4H)-yl)-4-(dimethylamino)but-2-en-1-one]	1.47
